ChEMBL document CHEMBL1201862, “PubChem BioAssay data set” (2004)
Values belong to the compound of their own block, whether it stands above or below them. Activity calls are given as the source filed them.

Legend:
[1] = target: Cell division cycle 7-related protein kinase (Homo sapiens, UniProt O00311); type: functional;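 note: value obtained from a kinome-wide kinase panel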
Wee1-like protein kinase = Wee1-like protein kinase (Homo sapiens, UniProt P30291); assay: Navigating the Kinome. Panel member name: WEE1; type: functional
Wee1-like protein kinase, sequence (P30291 whole entry): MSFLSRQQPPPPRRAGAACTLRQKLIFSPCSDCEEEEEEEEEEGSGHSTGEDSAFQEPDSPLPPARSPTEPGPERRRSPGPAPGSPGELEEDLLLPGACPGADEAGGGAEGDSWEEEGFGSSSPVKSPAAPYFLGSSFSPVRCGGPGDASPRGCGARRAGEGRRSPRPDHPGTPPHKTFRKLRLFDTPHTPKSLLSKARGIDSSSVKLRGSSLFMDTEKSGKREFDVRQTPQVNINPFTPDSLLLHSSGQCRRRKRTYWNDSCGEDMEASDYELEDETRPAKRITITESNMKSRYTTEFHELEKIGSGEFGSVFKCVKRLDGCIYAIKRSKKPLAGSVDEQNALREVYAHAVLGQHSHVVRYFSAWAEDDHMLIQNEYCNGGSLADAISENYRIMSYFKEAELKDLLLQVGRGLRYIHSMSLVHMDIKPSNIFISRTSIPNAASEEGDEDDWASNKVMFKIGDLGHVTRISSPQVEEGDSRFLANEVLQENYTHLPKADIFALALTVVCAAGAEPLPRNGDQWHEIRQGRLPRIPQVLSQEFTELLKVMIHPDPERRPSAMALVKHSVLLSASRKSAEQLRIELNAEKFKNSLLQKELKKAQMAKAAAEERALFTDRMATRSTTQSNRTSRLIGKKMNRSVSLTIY

[2] = target: T1, DNA dC->dU-editing enzyme APOBEC-3A (Homo sapiens, UniProt P31941); assay: Dose Response confirmation of small molecule APOBEC3A DNA Deaminase Inhibitors via a fluorescence-based single-stranded DNA deaminase assay. [Related pubchem assays (depositor defined):AID493011, AID493024]; type: functional
T1 sequence (P31941 whole entry): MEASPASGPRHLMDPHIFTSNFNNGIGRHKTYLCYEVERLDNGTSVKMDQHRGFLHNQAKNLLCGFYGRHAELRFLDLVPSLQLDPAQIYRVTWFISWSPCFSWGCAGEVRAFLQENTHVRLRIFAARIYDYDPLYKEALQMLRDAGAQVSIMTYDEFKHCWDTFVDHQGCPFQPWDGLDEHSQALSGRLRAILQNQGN

[3] = target: T2, DNA dC->dU-editing enzyme APOBEC-3G (Homo sapiens, UniProt Q9HC16); assay: SAR analysis of small molecule inhibitors of APOBEC3G DNA Deaminase via a fluorescence-based single-stranded DNA deaminase assay - Set 2.; type: functional; conditions: read-out: IC50_Mean
T2 sequence (Q9HC16 whole entry): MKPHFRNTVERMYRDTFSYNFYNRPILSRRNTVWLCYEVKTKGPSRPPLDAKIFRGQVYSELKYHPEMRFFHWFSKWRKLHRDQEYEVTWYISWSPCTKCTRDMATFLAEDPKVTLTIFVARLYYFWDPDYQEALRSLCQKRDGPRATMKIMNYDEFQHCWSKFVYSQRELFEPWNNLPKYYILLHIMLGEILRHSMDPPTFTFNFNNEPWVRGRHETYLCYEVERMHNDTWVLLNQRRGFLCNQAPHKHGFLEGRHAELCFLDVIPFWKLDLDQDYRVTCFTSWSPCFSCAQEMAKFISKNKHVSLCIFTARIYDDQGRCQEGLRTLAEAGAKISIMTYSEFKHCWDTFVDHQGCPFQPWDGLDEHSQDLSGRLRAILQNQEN

[4] = target: T2, DNA dC->dU-editing enzyme APOBEC-3G; assay: APOBEC3G deaminase inhibitors, SAR follow-up, biochemical, fluorescence, single-stranded DNA substrate (AID 602136); type: functional; conditions: read-out: IC50_Mean
[5] = target: T2, DNA dC->dU-editing enzyme APOBEC-3G; type: functional
[6] = target: T1, DNA dC->dU-editing enzyme APOBEC-3A; assay: SAR analysis of small molecule inhibitors of APOBEC3A DNA Deaminase via a fluorescence-based single-stranded DNA deaminase assay.; type: functional; conditions: read-out: IC50_Mean
[7] = target: T1, DNA dC->dU-editing enzyme APOBEC-3A; assay: SAR analysis of small molecule inhibitors of APOBEC3A DNA Deaminase via a fluorescence-based single-stranded DNA deaminase assay - Set 2.; type: functional; conditions: read-out: IC50_Mean
[8] = target: Latent membrane protein 1 (Human herpesvirus 4 (strain B95-8), UniProt P03230); assay: TES1-eGFP NF-kB reporter inhibition versus Tet-On dsRED, dose response, selectivity assay for LMP1 NF-kB inhibitor project, imaging, HEK293T, dual-color eGFP/dsRED, cherry-picks (AID 588398); type: functional, cell-based
Latent membrane protein 1, sequence (P03230 whole entry): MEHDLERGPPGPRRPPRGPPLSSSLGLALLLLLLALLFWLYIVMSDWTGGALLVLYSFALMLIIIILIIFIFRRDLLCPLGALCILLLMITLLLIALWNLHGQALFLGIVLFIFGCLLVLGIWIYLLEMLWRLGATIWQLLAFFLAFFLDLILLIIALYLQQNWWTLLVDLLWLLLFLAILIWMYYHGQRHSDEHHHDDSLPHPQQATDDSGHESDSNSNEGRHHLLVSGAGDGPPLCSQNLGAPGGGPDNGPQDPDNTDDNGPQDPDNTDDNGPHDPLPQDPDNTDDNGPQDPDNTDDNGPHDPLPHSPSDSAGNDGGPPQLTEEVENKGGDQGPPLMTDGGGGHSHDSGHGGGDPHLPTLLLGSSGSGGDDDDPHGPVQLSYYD

[9] = target: T3, Apoptotic protease-activating factor 1 (Homo sapiens, UniProt O14727); assay: SAR analysis of small molecule inhibitors of Apaf-1 in a Fluorescent assay.; type: functional; conditions: read-out: IC50_Mean
T3 sequence (O14727 whole entry): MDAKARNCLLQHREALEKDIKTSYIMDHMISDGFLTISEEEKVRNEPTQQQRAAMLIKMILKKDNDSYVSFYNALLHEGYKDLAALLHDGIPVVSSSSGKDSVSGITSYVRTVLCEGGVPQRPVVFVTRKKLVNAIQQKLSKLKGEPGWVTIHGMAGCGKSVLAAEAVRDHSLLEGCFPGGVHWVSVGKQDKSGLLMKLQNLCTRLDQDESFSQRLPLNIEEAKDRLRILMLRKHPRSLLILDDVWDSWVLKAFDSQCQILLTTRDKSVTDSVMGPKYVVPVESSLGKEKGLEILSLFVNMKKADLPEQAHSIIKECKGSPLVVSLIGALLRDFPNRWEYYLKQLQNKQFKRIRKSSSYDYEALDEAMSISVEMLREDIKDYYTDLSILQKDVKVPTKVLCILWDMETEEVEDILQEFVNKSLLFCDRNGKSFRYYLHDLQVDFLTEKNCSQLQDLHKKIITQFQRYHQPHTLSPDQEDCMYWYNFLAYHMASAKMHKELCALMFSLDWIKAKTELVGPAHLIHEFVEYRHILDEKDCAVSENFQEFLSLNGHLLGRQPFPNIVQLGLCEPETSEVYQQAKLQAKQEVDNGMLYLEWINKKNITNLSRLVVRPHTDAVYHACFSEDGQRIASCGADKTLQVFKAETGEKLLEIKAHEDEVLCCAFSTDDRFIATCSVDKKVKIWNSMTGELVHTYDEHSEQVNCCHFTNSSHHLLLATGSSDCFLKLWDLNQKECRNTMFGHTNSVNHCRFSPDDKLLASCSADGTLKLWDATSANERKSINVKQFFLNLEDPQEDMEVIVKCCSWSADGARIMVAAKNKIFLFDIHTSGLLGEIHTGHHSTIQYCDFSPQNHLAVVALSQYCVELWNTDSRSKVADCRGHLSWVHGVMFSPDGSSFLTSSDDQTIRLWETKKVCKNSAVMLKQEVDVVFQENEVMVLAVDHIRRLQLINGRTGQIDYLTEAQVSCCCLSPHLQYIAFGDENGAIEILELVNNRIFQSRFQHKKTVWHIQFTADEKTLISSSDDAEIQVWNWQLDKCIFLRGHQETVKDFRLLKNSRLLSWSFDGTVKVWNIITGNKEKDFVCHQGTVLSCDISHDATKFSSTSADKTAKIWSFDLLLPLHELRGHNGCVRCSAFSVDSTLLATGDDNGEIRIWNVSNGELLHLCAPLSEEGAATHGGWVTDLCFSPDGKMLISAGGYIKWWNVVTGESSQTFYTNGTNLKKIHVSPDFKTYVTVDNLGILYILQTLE

[10] = target: Multidrug resistance protein CDR1 (Candida albicans, UniProt P43071); assay: CaCDR1 efflux pump inhibitors in yeast, dose response, S. cerevisiae AD1-8u, singleplex, Cherry Pick1 hits (AID 588606); type: functional
Multidrug resistance protein CDR1, sequence (P43071 whole entry, looked up): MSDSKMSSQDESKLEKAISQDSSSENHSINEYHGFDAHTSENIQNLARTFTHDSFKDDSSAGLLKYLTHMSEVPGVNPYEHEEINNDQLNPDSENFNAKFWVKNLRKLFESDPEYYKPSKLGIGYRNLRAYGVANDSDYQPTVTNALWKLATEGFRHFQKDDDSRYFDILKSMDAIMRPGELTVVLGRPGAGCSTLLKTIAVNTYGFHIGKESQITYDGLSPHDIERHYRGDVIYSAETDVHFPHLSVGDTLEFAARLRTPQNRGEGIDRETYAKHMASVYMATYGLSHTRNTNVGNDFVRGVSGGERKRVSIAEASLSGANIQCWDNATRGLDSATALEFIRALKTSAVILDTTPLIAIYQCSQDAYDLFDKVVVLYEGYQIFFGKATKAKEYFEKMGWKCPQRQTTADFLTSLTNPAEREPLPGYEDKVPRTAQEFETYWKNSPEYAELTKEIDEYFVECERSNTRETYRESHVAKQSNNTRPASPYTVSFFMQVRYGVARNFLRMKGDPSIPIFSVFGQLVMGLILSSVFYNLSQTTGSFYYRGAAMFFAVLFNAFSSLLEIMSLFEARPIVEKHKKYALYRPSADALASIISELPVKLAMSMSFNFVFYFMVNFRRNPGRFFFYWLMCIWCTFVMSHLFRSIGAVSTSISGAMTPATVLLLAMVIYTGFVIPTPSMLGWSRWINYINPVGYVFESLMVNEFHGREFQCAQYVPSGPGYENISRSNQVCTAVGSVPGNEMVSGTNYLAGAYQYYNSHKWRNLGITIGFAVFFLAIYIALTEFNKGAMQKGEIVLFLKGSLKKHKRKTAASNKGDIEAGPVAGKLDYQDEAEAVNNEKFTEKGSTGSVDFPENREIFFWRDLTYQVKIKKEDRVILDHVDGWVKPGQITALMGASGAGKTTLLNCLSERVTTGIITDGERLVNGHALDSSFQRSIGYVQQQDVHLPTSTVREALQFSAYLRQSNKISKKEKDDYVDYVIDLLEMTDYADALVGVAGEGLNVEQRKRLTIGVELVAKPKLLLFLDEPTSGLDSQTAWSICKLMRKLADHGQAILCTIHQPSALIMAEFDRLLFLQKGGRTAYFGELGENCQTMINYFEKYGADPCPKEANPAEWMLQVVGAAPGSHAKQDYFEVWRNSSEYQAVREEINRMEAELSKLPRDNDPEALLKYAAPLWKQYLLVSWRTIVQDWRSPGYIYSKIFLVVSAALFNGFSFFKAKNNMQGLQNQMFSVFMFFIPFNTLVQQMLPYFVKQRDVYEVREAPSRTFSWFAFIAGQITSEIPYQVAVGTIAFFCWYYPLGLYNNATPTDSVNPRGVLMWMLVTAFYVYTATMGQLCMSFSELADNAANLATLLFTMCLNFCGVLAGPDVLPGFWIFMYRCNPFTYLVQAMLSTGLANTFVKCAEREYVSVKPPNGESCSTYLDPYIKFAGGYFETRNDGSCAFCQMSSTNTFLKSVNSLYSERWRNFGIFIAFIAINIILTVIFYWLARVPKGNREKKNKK

Cytochrome P450 3A4 = Cytochrome P450 3A4 (Homo sapiens, UniProt P08684);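 note: CYP3A4 tested as one member of a cytochrome P450 panel screen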
Cytochrome P450 3A4, sequence (P08684 whole entry): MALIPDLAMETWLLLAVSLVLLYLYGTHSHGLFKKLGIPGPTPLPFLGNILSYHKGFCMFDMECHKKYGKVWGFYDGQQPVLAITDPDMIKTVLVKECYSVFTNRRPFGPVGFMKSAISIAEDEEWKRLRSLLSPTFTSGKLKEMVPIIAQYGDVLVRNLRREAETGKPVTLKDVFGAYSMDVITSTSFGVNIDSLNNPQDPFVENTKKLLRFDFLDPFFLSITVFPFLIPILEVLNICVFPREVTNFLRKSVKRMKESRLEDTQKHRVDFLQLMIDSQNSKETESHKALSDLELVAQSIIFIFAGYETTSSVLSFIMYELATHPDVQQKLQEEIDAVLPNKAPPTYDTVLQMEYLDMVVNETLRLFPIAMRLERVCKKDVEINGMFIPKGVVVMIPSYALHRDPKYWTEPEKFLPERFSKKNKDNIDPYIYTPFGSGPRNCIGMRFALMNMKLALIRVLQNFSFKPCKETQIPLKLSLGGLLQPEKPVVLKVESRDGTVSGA

[11] = target: T3, Apoptotic protease-activating factor 1; assay: SAR analysis of small molecule Inhibitors of Apaf-1 in a Fluorescent assay - set 2.; type: functional; conditions: read-out: IC50_Mean
[12] = SAR analysis of small molecule inhibitors of Apaf-1 using a LZ-Caspase-9/Caspase-3 Fluorescent Selectivity assay - Set 2.; type: functional; conditions: read-out: IC50_Mean

Cell division cycle 7-related protein kinase, sequence (O00311 whole entry): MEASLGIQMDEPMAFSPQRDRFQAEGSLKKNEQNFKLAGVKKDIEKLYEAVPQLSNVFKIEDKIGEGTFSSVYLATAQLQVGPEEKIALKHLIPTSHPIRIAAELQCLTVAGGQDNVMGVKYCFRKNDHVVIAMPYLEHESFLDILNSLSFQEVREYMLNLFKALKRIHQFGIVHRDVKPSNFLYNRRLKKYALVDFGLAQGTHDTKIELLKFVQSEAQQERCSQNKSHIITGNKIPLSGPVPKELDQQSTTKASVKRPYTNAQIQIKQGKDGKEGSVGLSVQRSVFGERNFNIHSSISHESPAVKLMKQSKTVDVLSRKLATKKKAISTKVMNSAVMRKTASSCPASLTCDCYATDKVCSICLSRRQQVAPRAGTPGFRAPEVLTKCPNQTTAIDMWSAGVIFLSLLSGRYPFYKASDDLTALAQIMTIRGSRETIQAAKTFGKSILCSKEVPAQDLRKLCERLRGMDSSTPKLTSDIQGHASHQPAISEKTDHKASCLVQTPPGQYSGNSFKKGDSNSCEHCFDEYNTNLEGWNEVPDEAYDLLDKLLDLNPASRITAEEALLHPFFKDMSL

SMILES: CCC(=O)Nc1cccc(-c2nnc(SCC(=O)NCc3ccco3)n2C)c1
IC50 [2]: 1.07 µM (active)
IC50 [3]: 0.695 µM (active)
IC50 [4]: 1.5 µM (active)
IC50 [5]: 5.36 µM (active)
IC50 [6]: 1.93 µM (active)
IC50 [7]: 4.37 µM (active)

SMILES: O=C1CN(C(=O)c2ccc(F)c(S(=O)(=O)N3CCOCC3)c2)c2ccccc2N1
AC50 [8]: 48.3 µM (active)

SMILES: COc1ccc(-c2sc3cc4c(cc3c2-c2ccc(OCCN3CCCCC3)cc2)OCO4)cc1
EC50 [10]: 0.062 µM (active)

Continued, values first:

Ki [1]: 0.1 µM (active)
Ki (Wee1-like protein kinase): > 3.16 µM (inactive)
SMILES: N#Cc1cccc(Nc2ncnc(Nc3ccc(F)cc3)n2)c1

IC50 [9]: 41.2 µM (active)
SMILES: Cc1nc2cc(-c3nc4cc(NC(=O)c5cccs5)ccc4[nH]3)ccc2[nH]1

AC50 (Cytochrome P450 3A4): 7.94 µM (inconclusive)
IC50 [11]: 34 µM (active)
IC50 [12]: 22.7 µM (active)
SMILES: O=C1C(=O)N(Cc2ccc(Cl)c(Cl)c2)c2ccccc21
